According to patent US4698419A, “Hexapeptide” (Vsesojuzny Kardiologichesky Nauchny Tsentr Akademii …, priority 1984, dated 1987):
No end group written: not given here.

Tests used:
[1] = system: acute hepatitis induced by D-galactosamine hydrochloride; assay: Acute hepatitis induced by D-galactosamine hydrochloride in mice, plasma enzymes; type: in vivo, male mice of the line Balb C; conditions: for Concentration of alanine transaminase / Concentration of glutamatedehydrogenase: mouse blood plasma, D-galactosamine hydrochloride 700 mg/kg i.p., hexapeptide 100 μg/kg or prednisolone 5 mg/kg hypodermally, repeated after 6 hours
Description: The study of a hepatoprotective effect of the hexapeptide according to the present invention was carried out in comparison with prednisolone on male mice of the line Balb C.
The development of acute hepatitis was induced in mice subjected to a 12-hours' starving by means of D-galactosamine hydrochloride which was administered intraperitoneally diluted in 0.1 ml of a physiological solution in the dose of 700 mg/kg. The control group of animals was administered intraperitoneally with 0.1 ml of a physiological solution. The animals given D-galactosoamine hydrochloride were injected, immediately after its administration, with the hexapeptide according to the present invention (100 μg/kg), prednisolone (5 mg/kg) or a physiological solution (0.1 ml) hypodermally. Repeated injections of the test preparations were made after 6 hours. Each of the groups consisted of 12 animals. The mice were slaughtered by decapitation, blood was collected and in its plasma concentrations of alanine transaminase and glutametedehydrogenase were determined.
The statistical processing of the results obtained was effected using t-criterion. The certain value was regarded as the dirrerence at the level of 95% (at P<0.05).

[2] = Cell composition of the blood and basic hemodynamic characteristics in all experiments; type: in vivo; conditions: all of the experiments with the hexapeptide
Solubility of the powder = type: physicochemical
Description: The hexapeptide according to the present invention comprises a white powder well soluble in distilled water, physiological solution, ethanol, insoluble in ether, ethylacetate, benzene. Melting point is 154°-156° C., (α)D^25 =+8.4 (with 0.5 H2 O).

Acute toxicity LD50 = conditions: in vivo
[3] = system: acute liver injury induced by carbon tetrachloride; assay: Acute liver injury induced by carbon tetrachloride in rats, blood enzymes and lethality; type: in vivo, male rats of the V-star line; conditions: for Number of rats survived after 48 hours: groups of 13; for Lethality: comparison of the hexapeptide with somatostatin; for Concentration of alanine transaminase / Concentration of glutamatedehydrogenase: rat blood, CCl4, repeated after 6, 24 and 30 hours
Description: The hexapeptide according to the present invention was also studied on an experimental model of an acute liver injury in male rats of the V-star line induced by means of carbon tetrachloride. After a 12-hours' starvation the rats were given CCl4 in the concentration of […] diluted in olive oil intraperitoneally. After administration of CCl4 the rats were injected with the hexapeptide according to the present invention in different doses (10, 30, 100 and 300 μg/kg). Repeated injections of the hexapeptide according to the invention were effected after 6, 24, and 30 hours. The control group of animals was given, instead of the hexapeptide of this invention, a physiological solution (0.2 ml). All the test groups of animals consisted of 13 rats. Concentrations of alanine transaminase and glutamatedehydrogenase were determined in the rats blood.
A statistical processing in the case of liver injury caused by carbon tetrachloride in respect of the enzymes was effected using t-criterion, while in respect of lethality--by means of .chi.^2 criterion.

For “FAGFGR [hexapeptide of this invention, phenylalanyl-alanyl-glycyl-phenylalanyl-glycylarginine]”, the “Effect on the increase of concentrations of alanine transaminase” value ([1]; D-galactosamine mice, 100 μg/kg) was “substantially fully blocked the increase”, the “Reduction of the concentration of glutamatedehydrogenase” value ([1]; D-galactosamine mice, 100 μg/kg, versus D-galactosamine + physiological solution) was 2 times and the “Concentration of alanine transaminase” value [1] was 115.4 ± 5.2 JU/e. For the same compound, the Concentration of glutamatedehydrogenase [1] was 62.8 ± 4.9 JU/e, the “Changes on the part of basic hemodynamic characteristics” value [2] was “no changes were observed” and the “Changes on the part of the cell composition of the blood” value [2] was “no changes were observed”. For the same compound, the Solubility (Solubility of the powder; benzene) was “insoluble”, the Solubility (Solubility of the powder; distilled water) was “well soluble” and the Solubility (Solubility of the powder; ethanol) was “well soluble”. For the same compound, the Solubility (Solubility of the powder; ether) was “insoluble”, the Solubility (Solubility of the powder; ethylacetate) was “insoluble” and the Solubility (Solubility of the powder; physiological solution) was “well soluble”. The “Acute toxicity LD50” value (Acute toxicity LD50) was 120 mg/kg, the “Effect on both parameters (alanine transaminase, glutamatedehydrogenase)” value ([3]; CCl4 rats, 10-300 μg/kg) was “lowers both parameters depending on the dose” and the “Number of rats survived after 48 hours” value ([3]; CCl4 rats, dose 10 μg/kg) was 6. The “Number of rats survived after 48 hours” value ([3]; CCl4 rats, dose 30 μg/kg) was 9, the “Number of rats survived after 48 hours” value ([3]; CCl4 rats, dose 100 μg/kg) was 13 and the “Number of rats survived after 48 hours” value ([3]; CCl4 rats, dose 300 μg/kg) was 13. For the same compound, the “Lethal cases (%)” value ([3]; CCl4 rats, dose 10 μg/kg) was 54%, the “Lethal cases (%)” value ([3]; CCl4 rats, dose 30 μg/kg) was 30% and the “Lethal cases (%)” value ([3]; CCl4 rats, dose 100 μg/kg) was 0%. The “Lethal cases (%)” value ([3]; CCl4 rats, dose 300 μg/kg) was 0%, the Lethal cases ([3]; CCl4 rats, doses of 100 and 300 μg/kg) was “no lethal cases are observed” and the Lethality [3] was 0%. For the same compound, the Maximum effective dose ([3]; comparison with somatostatin) was 0.1 mg/kg, the “Maximum effective dose lower than that of somatostatin” value ([3]; hexapeptide versus somatostatin) was 15 times and the “Concentration of alanine transaminase” value ([3]; 10 μg/kg) was 4141.5 ± 1094.8 JU/e. For the same compound, the Concentration of glutamatedehydrogenase ([3]; 10 μg/kg) was 1962.0 ± 494.7 JU/e, the “Concentration of alanine transaminase” value ([3]; 30 μg/kg) was 3037.8 ± 580.8 JU/e and the Concentration of glutamatedehydrogenase ([3]; 30 μg/kg) was 1487.3 ± 301.5 JU/e. The “Concentration of alanine transaminase” value ([3]; 100 μg/kg) was 2339.8 ± 333.4 JU/e, the Concentration of glutamatedehydrogenase ([3]; 100 μg/kg) was 874.3 ± 118.3 JU/e and the “Concentration of alanine transaminase” value ([3]; 300 μg/kg) was 2110.1 ± 374.5 JU/e. For the same compound, the Concentration of glutamatedehydrogenase ([3]; 300 μg/kg) was 603.3 ± 118.0 JU/e.
`C[C@H](N)C(=O)NCC(=O)N[C@H]1CSSC[C@@H](C(=O)O)NC(=O)[C@H](CO)NC(=O)[C@H]([C@@H](C)O)NC(=O)[C@H](Cc2ccccc2)NC(=O)[C@H]([C@@H](C)O)NC(=O)[C@H](CCCCN)NC(=O)[C@H](Cc2c[nH]c3ccccc23)NC(=O)[C@H](Cc2ccccc2)NC(=O)[C@H](Cc2ccccc2)NC(=O)[C@H](CC(N)=O)NC(=O)[C@H](CCCCN)NC1=O` [somatostatin, reference compound] showed a Lethality [3] of 20% and a Maximum effective dose ([3]; comparison with the hexapeptide) of 1.5 mg/kg.
For `C[C@]12C=CC(=O)C=C1CC[C@@H]1[C@@H]2[C@@H](O)C[C@@]2(C)[C@H]1CC[C@]2(O)C(=O)CO` [prednisolone, reference compound], the “Effect on the values of the studied parameters (alanine transaminase, glutamatedehydrogenase)” value ([1]; D-galactosamine mice, prednisolone 5 mg/kg) was “a trend was observed towards reducing”, the “Effect on the concentration of the enzymes” value ([1]; conventionally employed parenteral dose) was “does not provide any pronounced effect” and the “Concentration of alanine transaminase” value [1] was 151.2 ± 14.3 JU/e. The Concentration of glutamatedehydrogenase [1] was 104.5 ± 10.1 JU/e.
